How the values were obtained:
[1] = test system: HIV-infected subjects with NAFL/NASH; settings: in vivo
[2] = test system: HIV-infected subjects with NAFL/NASH; parameters: species or system human; settings: in vivo
Protocol: Participants at MGH also underwent a euglycemic hyperinsulinemic clamp procedure to assess insulin sensitivity. After a 14-hour overnight fast, a low-dose (insulin 20 mU/m^2/min) clamp for 2 hours was followed by a high-dose (insulin 80 mU/m^2/min) clamp for 2 hours as previously described (Braun L R, et al. Effects of Pitavastatin on Insulin Sensitivity and Liver Fat: A Randomized Clinical Trial. J Clin Endocrinol Metab 2018; 103:4176-86). Insulin stimulated glucose disposal (M) were calculated during the last 20 minutes of low-dose and high-dose clamp using the DeFronzo method (DeFronzo R A, Tobin J D, Andres R. Am J Physiol 1979; 237:E214-23) as the primary indices of hepatic and whole-body insulin sensitivity, respectively.

[3] = test system: HIV-infected subjects with NAFL/NASH; parameters: species or system human; settings: in vivo; remark: listed apart in the source
Protocol: The study consisted of a 12-month, double-blind treatment phase during which participants were randomized in a 1:1 ratio receive to tesamorelin 2 mg daily or identical placebo, followed by a 6-month open label phase during which all participants receive tesamorelin. The pre-specified primary analysis, comparing changes over twelve months in tesamorelin vs. placebo treatment, is reported here. Randomization was stratified by site (NIH and MGH) and vitamin E use, defined as consistent use of ≥400 international units daily. The randomization list was prepared by the study statistician using a permuted block algorithm within each stratum with randomly varying block sizes. […] IGF-1 Z-scores were monitored throughout the study by an independent endocrinologist at MGH otherwise unaffiliated with the study. […]
Laboratory analyses were conducted using standard methodologies. Clinical labs were measured at the NIH Clinical Laboratory and, for MGH, at LabCorp and Quest. IGF-1 was measured centrally at Quest Laboratories. C-reactive protein was measured using electrochemiluminescense (Meso Scale Discovery, Rockville, MD), and adiponectin was measured using ELISA (R&D Systems, Minneapolis, MN).
Per the pre-specified analysis plan, change in HFF was assessed by random intercept mixed effects modeling using restricted maximum likelihood to assess the effect estimate for the time×randomization interaction. […]

[4] = test system: patients with primary NAFLD; settings: cited from earlier work
[5] = test system: patients with HIV-associated NAFLD; settings: Ajmera et al., Hepatology 2019; cited from earlier work
[6] = test system: NASH in the general population; settings: cited from earlier work

## CC/C=C/CC(=O)N[C@@H](Cc1ccc(O)cc1)C(=O)N[C@@H](C)C(=O)N[C@@H](CC(=O)O)C(=O)N[C@@H](C)C(=O)N[C@H](C(=O)N[C@@H](Cc1ccccc1)C(=O)N[C@H](C(=O)N[C@@H](CC(N)=O)C(=O)N[C@@H](CO)C(=O)N[C@@H](Cc1ccc(O)cc1)C(=O)N[C@@H](CCCNC(=N)N)C(=O)N[C@@H](CCCCN)C(=O)N[C@H](C(=O)N[C@@H](CC(C)C)C(=O)NCC(=O)N[C@@H](CCC(N)=O)C(=O)N[C@@H](CC(C)C)C(=O)N[C@@H](CO)C(=O)N[C@@H](C)C(=O)N[C@@H](CCCNC(=N)N)C(=O)N[C@@H](CCCCN)C(=O)N[C@@H](CC(C)C)C(=O)N[C@@H](CC(C)C)C(=O)N[C@@H](CCC(N)=O)C(=O)N[C@@H](CC(=O)O)C(=O)N[C@H](C(=O)N[C@@H](CCSC)C(=O)N[C@@H](CO)C(=O)N[C@@H](CCCNC(=N)N)C(=O)N[C@@H](CCC(N)=O)C(=O)N[C@@H](CCC(N)=O)C(=O)NCC(=O)N[C@@H](CCC(=O)O)C(=O)N[C@@H](CO)C(=O)N[C@@H](CC(N)=O)C(=O)N[C@@H](CCC(N)=O)C(=O)N[C@@H](CCC(=O)O)C(=O)N[C@@H](CCCNC(=N)N)C(=O)NCC(=O)N[C@@H](C)C(=O)N[C@@H](CCCNC(=N)N)C(=O)N[C@@H](C)C(=O)N[C@@H](CCCNC(=N)N)C(=O)N[C@@H](CC(C)C)C(N)=O)[C@@H](C)CC)C(C)C)[C@@H](C)O)[C@@H](C)CC [Tesamorelin, trans-3-hexenoyl-GHRH(1-44)-NH2]
[1]
  Any adverse event: 29
  Arthralgia: 3
  Hyperglycemia: 12
  Injection site bruising: 11
  Injection site erythema: 3
  Injection site stinging: 4
  Myalgia: 2
  Other adverse events: 25
  Other infection: 7
  Other injection site complaints: 10
  Paresthesia: 2
  URI: 5
  discontinuations for hyperglycemia: two
  relation of serious adverse events to study drug: None were judged as related to study drug
[2]
  treatment effect for high-dose M (insulin stimulated glucose uptake, high-dose clamp): −0.9
  treatment effect for low-dose M (glucose infusion rate, low-dose clamp): 0.0 mg/kg/min
[3]
  fasting glucose: did not significantly affect
  hemoglobin A1c: did not significantly affect

## CCCCCCCCCCCCCCCCCCCC(=O)N[C@H]1CC[C@@]2(C)[C@@H](C1)C[C@@H](O)[C@@H]1[C@@H]2C[C@H](O)[C@]2(C)[C@@H]([C@H](C)CCC(=O)O)CC[C@@H]12 [aramchol]
[4]
  hepatic-fat content: reduce
[5]
  effect in patients with HIV-associated NAFLD: no significant effect

## Vitamin E
[6]
  histological features of NASH: improve
